Experimental data as given in article PMC10924921, “Mi-2β promotes immune evasion in melanoma by activating EZH2 methylation” (Nature Communications, 2024).

Legend:
Assay in all cases: biochemical
Design in all cases: KINOMEscan active-site competition binding panel (468 kinase assays), per cent of control at 1000 nM
Settings in all cases: KINOMEscan per cent of control (binding competition); read-out: Percent Control
BUB1 = BUB1 (Homo sapiens, UniProt O43683)
Excerpt: (§1) Figure S7 / Percent Control

EPHA2 = EPHA2 (Homo sapiens, UniProt P29317)
Excerpt: as §1

PIK3CA = PIK3CA (Homo sapiens, UniProt P42336)
Excerpt: as §1

AMPK-alpha2 = biological target: T1, AMPK-alpha2 (Homo sapiens, UniProt P54646)
T1 construct: gene PRKAA2
Excerpt: as §1

AXL = AXL (Homo sapiens, UniProt P30530)
Excerpt: as §1

YANK1 = biological target: T2, YANK1 (Homo sapiens, UniProt Q8WU08)
T2 construct: gene STK32A
Excerpt: as §1

ABL2 = ABL2 (Homo sapiens, UniProt P42684)
Excerpt: as §1

RAF1 = RAF1 (Homo sapiens, UniProt P04049)
Excerpt: as §1

TXK = TXK (Homo sapiens, UniProt P42681)
Excerpt: as §1

CDKL1 = CDKL1 (Homo sapiens, UniProt Q00532)
Excerpt: as §1

MAP3K2 = MAP3K2 (Homo sapiens, UniProt Q9Y2U5)
Excerpt: as §1

DYRK2 = DYRK2 (Homo sapiens, UniProt Q92630)
Excerpt: as §1

CIT = CIT (Homo sapiens, UniProt O14578)
Excerpt: as §1

ROCK1 = ROCK1 (Homo sapiens, UniProt Q13464)
Excerpt: as §1

EGFR(L747-T751del,Sins) = EGFR(L747-T751del,Sins) (Homo sapiens, UniProt P00533, DEL747-750/T751S)
Excerpt: as §1

CSNK1A1L = CSNK1A1L (Homo sapiens, UniProt Q8N752)
Excerpt: as §1

SGK = biological target: T3, SGK (Homo sapiens, UniProt O00141)
T3 construct: gene SGK1
Excerpt: as §1

YSK1 = biological target: T4, YSK1 (Homo sapiens, UniProt O00506)
T4 construct: gene STK25
Excerpt: as §1

FLT3(D835H) = FLT3(D835H) (Homo sapiens, UniProt P36888, D835H)
Excerpt: as §1

HIPK4 = HIPK4 (Homo sapiens, UniProt Q8NE63)
Excerpt: as §1

ABL1-nonphosphorylated = biological target: T5, ABL1-nonphosphorylated (Homo sapiens, UniProt P00519)
T5 construct: nonphosphorylated
Excerpt: as §1

CDK8 = CDK8 (Homo sapiens, UniProt P49336)
Excerpt: as §1

TYRO3 = TYRO3 (Homo sapiens, UniProt Q06418)
Excerpt: as §1

PIP5K2B = biological target: T6, PIP5K2B (Homo sapiens, UniProt P78356)
T6 construct: gene PIP4K2B
Excerpt: as §1

HPK1 = biological target: T7, HPK1 (Homo sapiens, UniProt Q92918)
T7 construct: gene MAP4K1
Excerpt: as §1

T6 sequence (P78356 whole entry): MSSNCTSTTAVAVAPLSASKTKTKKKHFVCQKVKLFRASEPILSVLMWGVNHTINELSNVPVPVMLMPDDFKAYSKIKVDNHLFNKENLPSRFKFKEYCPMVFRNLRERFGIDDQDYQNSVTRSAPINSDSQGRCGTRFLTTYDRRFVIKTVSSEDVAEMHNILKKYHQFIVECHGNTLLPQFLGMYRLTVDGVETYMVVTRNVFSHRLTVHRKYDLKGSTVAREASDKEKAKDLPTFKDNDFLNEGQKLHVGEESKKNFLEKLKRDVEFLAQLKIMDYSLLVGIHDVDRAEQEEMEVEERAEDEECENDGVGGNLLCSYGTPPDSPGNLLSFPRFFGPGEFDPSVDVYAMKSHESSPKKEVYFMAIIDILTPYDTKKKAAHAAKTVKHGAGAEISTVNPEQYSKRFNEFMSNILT
CSNK1A1L, sequence (Q8N752 whole entry): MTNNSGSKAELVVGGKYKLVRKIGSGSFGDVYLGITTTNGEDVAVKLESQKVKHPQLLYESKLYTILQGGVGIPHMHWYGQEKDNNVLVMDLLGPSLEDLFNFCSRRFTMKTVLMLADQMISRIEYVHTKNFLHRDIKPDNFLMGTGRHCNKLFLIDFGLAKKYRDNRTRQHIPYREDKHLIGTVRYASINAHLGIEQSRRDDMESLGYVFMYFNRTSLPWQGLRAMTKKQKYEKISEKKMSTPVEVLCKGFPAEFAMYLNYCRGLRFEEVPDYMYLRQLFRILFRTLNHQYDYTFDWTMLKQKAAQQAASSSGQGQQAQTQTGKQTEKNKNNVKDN
MAP3K2, sequence (Q9Y2U5 whole entry): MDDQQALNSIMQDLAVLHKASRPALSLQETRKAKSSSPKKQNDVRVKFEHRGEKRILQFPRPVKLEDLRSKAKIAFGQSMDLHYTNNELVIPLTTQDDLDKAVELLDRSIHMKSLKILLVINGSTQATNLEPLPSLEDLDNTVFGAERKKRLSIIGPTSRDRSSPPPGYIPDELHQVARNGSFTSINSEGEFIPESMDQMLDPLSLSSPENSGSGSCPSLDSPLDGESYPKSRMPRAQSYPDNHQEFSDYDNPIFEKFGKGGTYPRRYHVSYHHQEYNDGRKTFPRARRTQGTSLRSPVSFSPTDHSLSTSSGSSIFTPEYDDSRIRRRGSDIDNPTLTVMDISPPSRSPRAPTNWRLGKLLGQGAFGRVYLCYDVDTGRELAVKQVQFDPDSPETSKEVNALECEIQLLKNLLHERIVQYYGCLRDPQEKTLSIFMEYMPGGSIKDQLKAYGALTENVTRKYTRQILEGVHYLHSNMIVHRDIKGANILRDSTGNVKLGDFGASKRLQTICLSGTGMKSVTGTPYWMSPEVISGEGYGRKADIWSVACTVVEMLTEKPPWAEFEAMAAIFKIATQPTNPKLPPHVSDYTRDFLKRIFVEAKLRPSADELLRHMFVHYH
AXL, sequence (P30530 whole entry): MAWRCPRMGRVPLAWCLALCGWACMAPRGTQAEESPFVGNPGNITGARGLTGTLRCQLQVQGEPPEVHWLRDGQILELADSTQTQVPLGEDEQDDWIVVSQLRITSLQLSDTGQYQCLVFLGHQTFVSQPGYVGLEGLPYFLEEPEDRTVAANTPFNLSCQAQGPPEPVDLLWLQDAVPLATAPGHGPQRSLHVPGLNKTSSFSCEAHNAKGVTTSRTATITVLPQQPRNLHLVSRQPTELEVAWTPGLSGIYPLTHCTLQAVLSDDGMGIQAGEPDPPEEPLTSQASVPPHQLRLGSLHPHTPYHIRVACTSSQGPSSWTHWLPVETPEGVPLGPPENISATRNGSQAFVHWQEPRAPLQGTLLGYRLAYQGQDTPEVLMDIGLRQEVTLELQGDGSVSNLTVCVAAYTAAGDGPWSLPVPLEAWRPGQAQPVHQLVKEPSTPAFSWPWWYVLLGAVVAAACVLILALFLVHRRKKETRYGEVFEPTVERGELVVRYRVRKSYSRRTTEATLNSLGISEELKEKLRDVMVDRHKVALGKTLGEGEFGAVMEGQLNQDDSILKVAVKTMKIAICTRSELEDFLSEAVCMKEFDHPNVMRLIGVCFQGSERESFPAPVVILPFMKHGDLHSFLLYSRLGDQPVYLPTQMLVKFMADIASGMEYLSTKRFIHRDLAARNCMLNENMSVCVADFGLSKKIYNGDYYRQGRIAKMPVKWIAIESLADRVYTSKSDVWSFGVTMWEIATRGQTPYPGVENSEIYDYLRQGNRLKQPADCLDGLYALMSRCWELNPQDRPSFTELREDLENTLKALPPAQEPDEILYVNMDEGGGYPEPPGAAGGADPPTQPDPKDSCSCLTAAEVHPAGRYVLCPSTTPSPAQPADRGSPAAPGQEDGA
T7 sequence (Q92918 whole entry): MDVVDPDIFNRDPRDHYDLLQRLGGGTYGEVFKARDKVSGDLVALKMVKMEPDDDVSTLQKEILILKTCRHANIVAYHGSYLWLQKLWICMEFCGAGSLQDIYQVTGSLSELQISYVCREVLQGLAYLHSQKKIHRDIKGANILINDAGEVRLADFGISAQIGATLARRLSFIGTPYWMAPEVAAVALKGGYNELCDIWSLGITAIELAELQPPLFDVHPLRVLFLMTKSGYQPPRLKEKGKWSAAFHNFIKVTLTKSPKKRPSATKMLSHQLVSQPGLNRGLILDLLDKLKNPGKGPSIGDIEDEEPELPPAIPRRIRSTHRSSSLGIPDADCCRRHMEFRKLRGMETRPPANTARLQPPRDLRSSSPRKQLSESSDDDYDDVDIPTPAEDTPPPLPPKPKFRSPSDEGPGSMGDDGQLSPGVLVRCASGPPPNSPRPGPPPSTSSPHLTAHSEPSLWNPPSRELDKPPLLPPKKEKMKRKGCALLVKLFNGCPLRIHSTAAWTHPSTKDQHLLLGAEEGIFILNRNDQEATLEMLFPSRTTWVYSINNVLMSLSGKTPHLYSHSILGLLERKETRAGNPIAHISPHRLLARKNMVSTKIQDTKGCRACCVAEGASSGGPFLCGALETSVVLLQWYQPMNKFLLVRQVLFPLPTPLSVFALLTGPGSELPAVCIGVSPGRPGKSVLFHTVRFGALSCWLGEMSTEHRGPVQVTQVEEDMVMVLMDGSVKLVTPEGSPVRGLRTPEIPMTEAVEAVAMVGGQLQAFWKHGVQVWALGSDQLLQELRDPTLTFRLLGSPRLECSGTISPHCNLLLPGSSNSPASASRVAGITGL
T3 sequence (O00141 whole entry): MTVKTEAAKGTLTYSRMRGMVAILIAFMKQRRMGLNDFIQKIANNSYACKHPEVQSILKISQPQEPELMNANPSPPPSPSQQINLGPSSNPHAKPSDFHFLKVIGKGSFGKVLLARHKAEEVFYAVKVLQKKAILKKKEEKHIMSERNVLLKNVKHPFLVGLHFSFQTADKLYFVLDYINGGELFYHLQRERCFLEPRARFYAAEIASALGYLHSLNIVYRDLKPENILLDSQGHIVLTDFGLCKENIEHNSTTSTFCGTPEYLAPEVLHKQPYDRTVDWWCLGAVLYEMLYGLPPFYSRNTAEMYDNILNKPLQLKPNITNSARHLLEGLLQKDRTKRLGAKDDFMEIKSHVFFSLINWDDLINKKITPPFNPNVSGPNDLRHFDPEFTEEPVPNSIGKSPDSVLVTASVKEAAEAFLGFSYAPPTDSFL
ABL2, sequence (P42684 whole entry): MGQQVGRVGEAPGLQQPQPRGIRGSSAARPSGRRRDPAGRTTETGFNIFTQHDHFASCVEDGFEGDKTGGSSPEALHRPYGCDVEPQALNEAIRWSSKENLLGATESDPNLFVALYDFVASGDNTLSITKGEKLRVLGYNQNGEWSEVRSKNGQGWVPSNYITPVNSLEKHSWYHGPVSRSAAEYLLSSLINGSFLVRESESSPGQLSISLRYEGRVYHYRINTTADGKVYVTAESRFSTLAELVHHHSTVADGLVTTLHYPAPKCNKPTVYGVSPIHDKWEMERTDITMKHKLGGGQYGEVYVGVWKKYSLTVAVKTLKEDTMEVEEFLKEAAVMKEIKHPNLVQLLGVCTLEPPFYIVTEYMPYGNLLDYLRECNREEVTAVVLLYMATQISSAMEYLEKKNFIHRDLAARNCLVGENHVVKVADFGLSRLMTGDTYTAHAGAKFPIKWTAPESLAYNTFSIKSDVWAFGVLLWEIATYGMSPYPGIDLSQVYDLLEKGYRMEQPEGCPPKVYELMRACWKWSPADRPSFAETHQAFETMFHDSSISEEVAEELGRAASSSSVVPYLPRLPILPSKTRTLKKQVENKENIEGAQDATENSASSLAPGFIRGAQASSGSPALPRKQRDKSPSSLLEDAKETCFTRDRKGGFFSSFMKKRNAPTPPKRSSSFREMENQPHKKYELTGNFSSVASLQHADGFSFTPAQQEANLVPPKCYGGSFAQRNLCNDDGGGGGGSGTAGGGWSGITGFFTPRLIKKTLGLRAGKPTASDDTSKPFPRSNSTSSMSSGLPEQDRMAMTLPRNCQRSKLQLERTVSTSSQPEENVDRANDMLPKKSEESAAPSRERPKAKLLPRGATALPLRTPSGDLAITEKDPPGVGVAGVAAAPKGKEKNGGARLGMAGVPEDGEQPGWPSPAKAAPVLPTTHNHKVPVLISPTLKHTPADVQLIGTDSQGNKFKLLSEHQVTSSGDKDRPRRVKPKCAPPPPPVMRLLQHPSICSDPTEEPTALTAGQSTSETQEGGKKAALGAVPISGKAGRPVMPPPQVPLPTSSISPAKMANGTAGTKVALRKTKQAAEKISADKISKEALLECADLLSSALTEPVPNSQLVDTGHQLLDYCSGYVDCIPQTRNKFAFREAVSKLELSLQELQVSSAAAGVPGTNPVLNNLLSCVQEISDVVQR

In the case of `Cn1c(=O)[nH]c2ccc(-c3cccc(C(=O)NC4CCn5ccnc5C4)c3)cc21` (stereo not shown) [Z36-MP5], the remaining binding at 1 µM (BUB1) is reported as 73%, the remaining binding at 1 µM (EPHA2) is reported as 88% and the remaining binding at 1 µM (PIK3CA) is reported as 97%. The remaining binding at 1 µM (AMPK-alpha2) was 93%, the remaining binding at 1 µM (AXL) was 94% and the remaining binding at 1 µM (YANK1) was 95%. For the same molecule, the remaining binding at 1 µM (ABL2) was 98%, the remaining binding at 1 µM (RAF1) was 83% and the remaining binding at 1 µM (TXK) was 98%. For the same molecule, the remaining binding at 1 µM (CDKL1) was 41%, the remaining binding at 1 µM (MAP3K2) was 65% and the remaining binding at 1 µM (DYRK2) was 84%. The remaining binding at 1 µM (CIT) was 76%, the remaining binding at 1 µM (ROCK1) was 54% and the remaining binding at 1 µM (EGFR(L747-T751del,Sins)) was 84%. The remaining binding at 1 µM (CSNK1A1L) was 99%, the remaining binding at 1 µM (SGK) was 68% and the remaining binding at 1 µM (YSK1) was 98%. It also gave a remaining binding at 1 µM (FLT3(D835H)) of 81%, a remaining binding at 1 µM (HIPK4) of 91% and a remaining binding at 1 µM (ABL1-nonphosphorylated) of 91%. It also gave a remaining binding at 1 µM (CDK8) of 55%, a remaining binding at 1 µM (TYRO3) of 100% and a remaining binding at 1 µM (PIP5K2B) of 54%. For the same molecule, the remaining binding at 1 µM (HPK1) was 83%.
